Measured values as given in ChEMBL document CHEMBL3616410, “Linked pyridinyl-thiadiazoles: Design and synthesis as potential candidate for treatment of XDR and MDR tuberculosis” (Eur J Med Chem, 2015).
Converted amounts (≈) assume the structure as drawn.

Experiments:
[1] = system: Mycobacterium tuberculosis; test: Bactericidal activity against Mycobacterium tuberculosis H37Rv ATCC 27294 after 5 days by spectrophotometry; type: functional
[2] = system: Mycobacterium tuberculosis; test: Antimycobacterial activity against Mycobacterium tuberculosis H37Rv ATCC 27294 after 5 days by spectrophotometry; type: functional; settings: H37Rv ATCC 27294, 120 h
[3] = Cytotoxicity against human HepG2 cells after 3 days; type: cell-based
[4] = Cytotoxicity against hamster BHK21 cells after 3 days; type: cell-based, Mesocricetus auratus, BHK-21
[5] = system: Mycobacterium tuberculosis; test: Antimycobacterial activity against Mycobacterium tuberculosis TN675 after 5 days by spectrophotometry; type: functional; settings: TN675, 120 h
[6] = system: Mycobacterium tuberculosis; test: Antimycobacterial activity against Mycobacterium tuberculosis TN913 after 5 days by spectrophotometry; type: functional; settings: TN913, 120 h
[7] = system: Mycobacterium tuberculosis; test: Antimycobacterial activity against Mycobacterium tuberculosis TN994 after 5 days by spectrophotometry; type: functional; settings: TN994, 120 h
[8] = system: Mycobacterium tuberculosis; test: Antimycobacterial activity against Mycobacterium tuberculosis TN1008 after 5 days by spectrophotometry; type: functional; settings: TN1008, 120 h
[9] = system: Mycobacterium tuberculosis; test: Antimycobacterial activity against Mycobacterium tuberculosis TN1037 after 5 days by spectrophotometry; type: functional; settings: TN1037, 120 h
[10] = system: Mycobacterium tuberculosis; test: Antimycobacterial activity against Mycobacterium tuberculosis TN1040 after 5 days by spectrophotometry; type: functional; settings: TN1040, 120 h
[11] = system: Mycobacterium tuberculosis; test: Antimycobacterial activity against Mycobacterium tuberculosis TN1051 after 5 days by spectrophotometry; type: functional; settings: TN1051, 120 h
[12] = system: Mycobacterium tuberculosis; test: Antimycobacterial activity against Mycobacterium tuberculosis TN1082 after 5 days by spectrophotometry; type: functional; settings: TN1082, 120 h
[13] = system: Mycobacterium tuberculosis; test: Antimycobacterial activity against Mycobacterium tuberculosis TN2351 after 5 days by spectrophotometry; type: functional; settings: TN2351, 120 h
[14] = system: Mycobacterium tuberculosis; test: Antimycobacterial activity against Mycobacterium tuberculosis TN2524 after 5 days by spectrophotometry; type: functional; settings: TN2524, 120 h
[15] = system: Mycobacterium tuberculosis; test: Antimycobacterial activity against Mycobacterium tuberculosis TN3183 after 5 days by spectrophotometry; type: functional; settings: TN3183, 120 h
[16] = system: Mycobacterium tuberculosis; test: Antimycobacterial activity against Mycobacterium tuberculosis TN3979 after 5 days by spectrophotometry; type: functional; settings: TN3979, 120 h
[17] = system: Mycobacterium tuberculosis; test: Antimycobacterial activity against Mycobacterium tuberculosis TN4259 after 5 days by spectrophotometry; type: functional; settings: TN4259, 120 h
[18] = system: Mycobacterium tuberculosis; test: Antimycobacterial activity against Mycobacterium tuberculosis AH9584 after 5 days by spectrophotometry; type: functional; settings: AH9584, 120 h
[19] = system: Mycobacterium tuberculosis; test: Antimycobacterial activity against Mycobacterium tuberculosis BE11677 after 5 days by spectrophotometry; type: functional; settings: BE11677, 120 h
[20] = system: Mycobacterium tuberculosis; test: Antimycobacterial activity against Mycobacterium tuberculosis E8133 after 5 days by spectrophotometry; type: functional; settings: E8133, 120 h
[21] = system: Mycobacterium tuberculosis; test: Antimycobacterial activity against Mycobacterium tuberculosis W4 after 5 days by spectrophotometry; type: functional; settings: W4, 120 h

Row | Compound | MBC90 [1] | MIC50 [2] | CC50 at 72 h [3] | CC50 at 72 h [4] | also measured
1 | CC(Sc1nnc(-c2ccncc2)s1)C(=O)NCc1ccccc1 (stereo unspecified) | 5 µM (≈ 1.78 µg/mL) | 1.15 µM (≈ 0.41 µg/mL) | > 50 µM | > 50 µM | –
2 | O=C(CSc1nnc(-c2ccncc2)s1)NCc1ccc(Cl)cc1 | – | 11.7 µM (≈ 4.42 µg/mL) | > 50 µM | > 50 µM | –
3 | CC(CSc1nnc(-c2ccncc2)s1)C(=O)Nc1ccc(Cl)cc1 (stereo unspecified) | 1.25 µM (≈ 0.489 µg/mL) | 0.22 µM (≈ 0.086 µg/mL) | > 50 µM | > 50 µM | –
4 | CC(CSc1nnc(-c2ccncc2)s1)C(=O)Nc1c(Cl)cccc1Cl (stereo unspecified) | 5 µM (≈ 2.13 µg/mL) | 1.55 µM (≈ 0.659 µg/mL) | > 50 µM | > 50 µM | –
5 | CC(Sc1nnc(-c2ccncc2)s1)C(=O)Nc1ccc(Cl)cc1Cl (stereo unspecified) | 5 µM (≈ 2.06 µg/mL) | 2.45 µM (≈ 1.01 µg/mL) | > 50 µM | > 50 µM | –
6 | O=C(CSc1nnc(-c2ccncc2)s1)Nc1ccc(Cl)cc1 | – | 6.81 µM (≈ 2.47 µg/mL) | > 50 µM | > 50 µM | –
7 | CC(CSc1nnc(-c2ccncc2)s1)C(=O)Nc1ccccc1Cl (stereo unspecified) | 5 µM (≈ 1.95 µg/mL) | 2.05 µM (≈ 0.801 µg/mL) | > 50 µM | > 50 µM | –
8 | O=C(CCSc1nnc(-c2ccncc2)s1)NCc1ccccc1 | 2.5 µM (≈ 0.891 µg/mL) | 0.67 µM (≈ 0.239 µg/mL) | 14 µM | 18.7 µM | –
9 | CC(CSc1nnc(-c2ccncc2)s1)C(=O)Nc1ccccc1 (stereo unspecified) | 5 µM (≈ 1.78 µg/mL) | 2.26 µM (≈ 0.806 µg/mL) | > 50 µM | > 50 µM | –
10 | CC(Sc1nnc(-c2ccncc2)s1)C(=O)Nc1ccccc1Cl (stereo unspecified) | 5 µM (≈ 1.88 µg/mL) | 1.04 µM (≈ 0.392 µg/mL) | > 50 µM | > 50 µM | –
11 | O=C(CCSc1nnc(-c2ccncc2)s1)NCc1ccc(Cl)cc1 | 2.5 µM (≈ 0.977 µg/mL) | 0.63 µM (≈ 0.246 µg/mL) | 15.6 µM | 21.5 µM | –
12 | CC(CSc1nnc(-c2ccncc2)s1)C(=O)Nc1ccc(Cl)cc1Cl (stereo unspecified) | 5 µM (≈ 2.13 µg/mL) | 1.48 µM (≈ 0.63 µg/mL) | > 50 µM | > 50 µM | –
13 | S=c1[nH]nc(-c2ccncc2)s1 | 1.25 µM (≈ 0.244 µg/mL) | 0.2 µM (≈ 0.0391 µg/mL) | 19.7 µM | 14.7 µM | –
14 | O=C(CSc1nnc(-c2ccncc2)s1)Nc1ccccc1 | 1.25 µM (≈ 0.411 µg/mL) | 0.18 µM (≈ 0.0591 µg/mL) | 15.2 µM | 16.2 µM | –
15 | O=C(CSc1nnc(-c2ccncc2)s1)Nc1ccccc1Cl | – | 8.52 µM (≈ 3.09 µg/mL) | > 50 µM | > 50 µM | –
16 | O=C(CSc1nnc(-c2ccncc2)s1)NCc1ccccc1 | 1.25 µM (≈ 0.428 µg/mL) | 0.19 µM (≈ 0.0651 µg/mL) | 17.7 µM | 11.3 µM | –
17 | NNC(=O)c1ccncc1 [ISONIAZID] | – | 0.03 µM (≈ 0.00411 µg/mL) | – | – | MIC [2]: 0.03 µg/mL (≈ 0.219 µM); MIC [5]: 0.03 µg/mL (≈ 0.219 µM); MIC [6]: 0.03 µg/mL (≈ 0.219 µM); MIC [7]: 0.03 µg/mL (≈ 0.219 µM); MIC [8]: 0.06 µg/mL (≈ 0.438 µM); MIC [9]: 0.03 µg/mL (≈ 0.219 µM); MIC [10]: 0.03 µg/mL (≈ 0.219 µM); MIC [11]: 0.03 µg/mL (≈ 0.219 µM); MIC [12]: 0.03 µg/mL (≈ 0.219 µM); MIC [13]: 0.06 µg/mL (≈ 0.438 µM); MIC [14]: 0.06 µg/mL (≈ 0.438 µM); MIC [15]: 0.03 µg/mL (≈ 0.219 µM); MIC [16]: 0.06 µg/mL (≈ 0.438 µM); MIC [17]: 0.03 µg/mL (≈ 0.219 µM); MIC [18]: 0.19 µg/mL (≈ 1.39 µM); MIC [19]: 0.2 µg/mL (≈ 1.46 µM); MIC [20]: 0.08 µg/mL (≈ 0.583 µM); MIC [21]: 0.03 µg/mL (≈ 0.219 µM)

Row | Compound | MBC90 [1] | MIC50 [2] | CC50 at 72 h [3] | CC50 at 72 h [4] | also measured
18 | CC(Sc1nnc(-c2ccncc2)s1)C(=O)NCc1ccc(Cl)cc1 (stereo unspecified) | – | > 20 µM | – | – | –
19 | CC(Sc1nnc(-c2ccncc2)s1)C(=O)Nc1c(Cl)cccc1Cl (stereo unspecified) | 5 µM (≈ 2.06 µg/mL) | 1.19 µM (≈ 0.489 µg/mL) | > 50 µM | > 50 µM | –
20 | CC(Sc1nnc(-c2ccncc2)s1)C(=O)Nc1ccccc1 (stereo unspecified) | 5 µM (≈ 1.71 µg/mL) | 1.48 µM (≈ 0.507 µg/mL) | > 50 µM | > 50 µM | –
21 | O=C(CSc1nnc(-c2ccncc2)s1)Nc1c(Cl)cccc1Cl | – | > 20 µM | – | – | –
22 | O=C(CSc1nnc(-c2ccncc2)s1)NCc1ccccc1Cl | – | 9.67 µM (≈ 3.64 µg/mL) | – | – | –
23 | O=C(CCSc1nnc(-c2ccncc2)s1)NCc1ccccc1Cl | 2.5 µM (≈ 0.977 µg/mL) | 0.65 µM (≈ 0.254 µg/mL) | > 50 µM | > 50 µM | –
24 | CC(Sc1nnc(-c2ccncc2)s1)C(=O)NCc1ccccc1Cl (stereo unspecified) | 5 µM (≈ 1.95 µg/mL) | 1.26 µM (≈ 0.493 µg/mL) | > 50 µM | > 50 µM | –
25 | O=C(CCSc1nnc(-c2ccncc2)s1)Nc1ccccc1Cl | 2.5 µM (≈ 0.942 µg/mL) | 0.62 µM (≈ 0.234 µg/mL) | > 50 µM | > 50 µM | –
26 | O=C(CCSc1nnc(-c2ccncc2)s1)Nc1ccc(Cl)cc1Cl | 2.5 µM (≈ 1.03 µg/mL) | 0.55 µM (≈ 0.226 µg/mL) | > 50 µM | > 50 µM | –
27 | O=C(CCSc1nnc(-c2ccncc2)s1)Nc1c(Cl)cccc1Cl | 2.5 µM (≈ 1.03 µg/mL) | 0.59 µM (≈ 0.243 µg/mL) | 12.6 µM | 10.3 µM | –
28 | O=C(CCSc1nnc(-c2ccncc2)s1)Nc1ccccc1 | 2.5 µM (≈ 0.856 µg/mL) | 0.61 µM (≈ 0.209 µg/mL) | > 50 µM | > 50 µM | –
29 | CC(Sc1nnc(-c2ccncc2)s1)C(=O)Nc1ccc(Cl)cc1 (stereo unspecified) | 1.25 µM (≈ 0.471 µg/mL) | 0.12 µM (≈ 0.0452 µg/mL) | > 50 µM | > 50 µM | –
30 | CC(CSc1nnc(-c2ccncc2)s1)C(=O)NCc1ccc(Cl)cc1 (stereo unspecified) | – | 1.68 µM (≈ 0.68 µg/mL) | – | – | –
31 | CC(CSc1nnc(-c2ccncc2)s1)C(=O)NCc1ccccc1Cl (stereo unspecified) | 5 µM (≈ 2.02 µg/mL) | 1.89 µM (≈ 0.765 µg/mL) | > 50 µM | > 50 µM | –
32 | CC(CSc1nnc(-c2ccncc2)s1)C(=O)NCc1ccccc1 (stereo unspecified) | 5 µM (≈ 1.85 µg/mL) | 2.51 µM (≈ 0.93 µg/mL) | > 50 µM | > 50 µM | –
33 | O=C(CSc1nnc(-c2ccncc2)s1)Nc1ccc(Cl)cc1Cl | – | > 20 µM | – | – | –
34 | O=C(CCSc1nnc(-c2ccncc2)s1)Nc1ccc(Cl)cc1 | 1.25 µM (≈ 0.471 µg/mL) | 0.07 µM (≈ 0.0264 µg/mL) | 7.26 µM | 8.21 µM | MIC [2]: 0.015 µg/mL (≈ 0.0398 µM); MIC [5]: 0.013 µg/mL (≈ 0.0345 µM); MIC [6]: 0.013 µg/mL (≈ 0.0345 µM); MIC [7]: 0.03 µg/mL (≈ 0.0796 µM); MIC [8]: 0.06 µg/mL (≈ 0.159 µM); MIC [9]: 0.06 µg/mL (≈ 0.159 µM); MIC [10]: 0.03 µg/mL (≈ 0.0796 µM); MIC [11]: 0.06 µg/mL (≈ 0.159 µM); MIC [12]: 0.06 µg/mL (≈ 0.159 µM); MIC [13]: 0.25 µg/mL (≈ 0.663 µM); MIC [14]: 0.25 µg/mL (≈ 0.663 µM); MIC [15]: 0.06 µg/mL (≈ 0.159 µM); MIC [16]: 0.13 µg/mL (≈ 0.345 µM); MIC [17]: 0.06 µg/mL (≈ 0.159 µM); MIC [18]: 0.25 µg/mL (≈ 0.663 µM); MIC [19]: 0.25 µg/mL (≈ 0.663 µM); MIC [20]: 0.13 µg/mL (≈ 0.345 µM); MIC [21]: 0.06 µg/mL (≈ 0.159 µM)
